≈ marks a conversion by molar mass, not a printed value.
Target: T1, α-glucosidase (sucrase) existing in small intestine of rat (Rattus norvegicus, UniProt P23739)
T1 construct: the supernatant liquid thereof was used as an enzyme solution (sucrase); from tissue; host or cells: rat small intestinal mucous membrane (brush border membrane)
Assay: Inhibition of rat small intestinal α-glucosidase (sucrase), IC50
Type: biochemical
Settings: partially purified rat small intestinal sucrase, 5 mM sucrose, 37° C. for 60 minutes
Description: As to the α-glucosidase, a sucrase solution which was partially purified from small intestinal mucous membrane (brush edge membrane) of rat was used. Namely, the mucous membrane of small intestine was exfoliated using a slide glass, homogenized at 4° C. for 5 minutes with a phosphate buffer and subjected to an ultrasonic treatment for 5 minutes. The resulting solution of smashed mucous membrane was centrifuged and the supernatant liquid thereof was used as an enzyme solution (sucrase). A 5 mM sucrose solution was used as a substrate, an enzyme solution and a predetermined amount of a 1-deoxynojirimycin solution or a mulberry extract were added and the reaction was carried out at 37° C. for 60 minutes and then stopped by a treatment at 100° C. for 5 minutes. Amount of glucose in the reaction solution was measured by a biochemical automatic analyzer.

T1 sequence (P23739 whole entry): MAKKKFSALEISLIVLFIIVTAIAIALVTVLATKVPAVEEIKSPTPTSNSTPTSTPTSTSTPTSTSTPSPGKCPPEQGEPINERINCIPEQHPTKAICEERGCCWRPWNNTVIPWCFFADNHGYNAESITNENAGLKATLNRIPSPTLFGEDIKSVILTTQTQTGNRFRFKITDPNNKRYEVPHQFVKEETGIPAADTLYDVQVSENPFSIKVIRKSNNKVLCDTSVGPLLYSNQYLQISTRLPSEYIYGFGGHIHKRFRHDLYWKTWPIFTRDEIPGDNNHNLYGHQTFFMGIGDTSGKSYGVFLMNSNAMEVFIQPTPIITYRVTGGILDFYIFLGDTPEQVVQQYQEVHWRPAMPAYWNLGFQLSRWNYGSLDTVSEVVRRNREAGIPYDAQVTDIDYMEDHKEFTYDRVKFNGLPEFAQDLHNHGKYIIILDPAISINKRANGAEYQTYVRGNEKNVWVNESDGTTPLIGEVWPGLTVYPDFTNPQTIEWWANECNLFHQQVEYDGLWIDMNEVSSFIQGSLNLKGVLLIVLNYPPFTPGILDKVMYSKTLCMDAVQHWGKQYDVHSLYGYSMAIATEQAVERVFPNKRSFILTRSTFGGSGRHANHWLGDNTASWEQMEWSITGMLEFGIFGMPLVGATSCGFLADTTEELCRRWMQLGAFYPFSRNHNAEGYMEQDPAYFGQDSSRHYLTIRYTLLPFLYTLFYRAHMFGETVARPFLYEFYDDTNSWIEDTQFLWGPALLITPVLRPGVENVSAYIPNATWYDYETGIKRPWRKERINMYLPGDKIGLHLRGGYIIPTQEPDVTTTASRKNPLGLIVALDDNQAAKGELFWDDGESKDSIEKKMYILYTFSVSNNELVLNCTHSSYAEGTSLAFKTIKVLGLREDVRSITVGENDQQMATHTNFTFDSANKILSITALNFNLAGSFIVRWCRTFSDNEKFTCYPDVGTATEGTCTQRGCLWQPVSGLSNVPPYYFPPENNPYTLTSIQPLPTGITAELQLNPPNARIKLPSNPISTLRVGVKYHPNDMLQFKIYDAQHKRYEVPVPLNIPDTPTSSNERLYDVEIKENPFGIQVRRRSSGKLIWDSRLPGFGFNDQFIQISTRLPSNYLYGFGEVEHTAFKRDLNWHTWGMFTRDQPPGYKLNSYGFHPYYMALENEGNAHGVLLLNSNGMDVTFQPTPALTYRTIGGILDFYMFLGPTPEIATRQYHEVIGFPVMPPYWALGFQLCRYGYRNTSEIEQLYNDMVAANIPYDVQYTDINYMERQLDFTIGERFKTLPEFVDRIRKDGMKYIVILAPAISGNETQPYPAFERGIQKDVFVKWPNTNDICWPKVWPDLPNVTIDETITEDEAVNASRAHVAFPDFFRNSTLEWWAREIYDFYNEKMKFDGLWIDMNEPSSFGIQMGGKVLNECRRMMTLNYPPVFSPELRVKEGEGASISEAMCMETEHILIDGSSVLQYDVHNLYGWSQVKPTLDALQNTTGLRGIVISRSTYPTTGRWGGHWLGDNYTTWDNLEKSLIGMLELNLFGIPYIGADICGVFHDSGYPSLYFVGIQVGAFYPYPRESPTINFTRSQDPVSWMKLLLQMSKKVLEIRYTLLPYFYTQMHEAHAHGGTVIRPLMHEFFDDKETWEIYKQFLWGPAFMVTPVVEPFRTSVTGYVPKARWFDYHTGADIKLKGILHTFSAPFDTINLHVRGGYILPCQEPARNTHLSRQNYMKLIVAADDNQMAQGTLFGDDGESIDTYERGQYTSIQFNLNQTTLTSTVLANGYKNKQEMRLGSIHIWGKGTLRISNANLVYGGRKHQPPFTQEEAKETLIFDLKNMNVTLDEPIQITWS

IC50 to Sucrase: 0.05 µg/mL (≈ 0.306 µM)
SMILES: OC[C@H]1NC[C@H](O)[C@@H](O)[C@@H]1O [1-Deoxynojirimycin, 1-deoxynojirimycin]

Reference: US20010018090A1, “Calorie reducing agent” (priority 1999, published 2001)
